“And” between values parts separate entries of the source, which are not always exact repeats. Equal values may be shown once.
Tests used:
[1] = system: protamine; experiment: Isothermal titration calorimetry, POM into protamine; format: binding; conditions: 10 mM Mes, pH 5.5, 298.15 K
Procedure: (§1) All experiments were performed with a VP-ITC MicroCalorimeter from MicroCal, Int,. at atmospheric pressure and 298.15 K. Solutions were degassed and thermostatic prior the titration experiments in a ThermoVac accessory. A constant volume of POM ([PVW11]^4- or [SiMoW11]^4-) (10 µL per injection) was injected into the oligopeptide solution (heptaArg, protamine, polyArg or heptaLys) in 10 mM Mes, pH 5.5 to determine the apparent binding affinity of [PVW11]^4- and [SiMoW11]^4- with the oligopeptides. Dilution heats were determined by titration of the POM into buffer and subtracted from the reaction heat. The neat reaction heat was fitted with Origin 7.0 software by using the "one-set-of-sites" model to obtain the complex stability constant (Ka) and molar reaction enthalpy (ΔH°). The free energy (ΔG°) and entropy changes (ΔS°) were obtained according to the relation: ΔG° = - R TInKa = ΔH°-TΔS°.

[2] = system: heptaArg; experiment: Isothermal titration calorimetry, POM into heptaArg; format: binding; conditions: 10 mM Mes, pH 5.5, 298.15 K
Procedure: as §1

[3] = Stability investigation by NMR spectroscopy (hydrolysis in buffer/media); format: physicochemical; conditions: for Hydrolysis/Stability pH 7.5: 10 mM Hepes or 10 mM Tris, pH 7.4; for Hydrolysis/Stability pH 7.5 / Hydrolysis/Stability pH 5.5: 107 mM NaCl; for Hydrolysis/Stability pH 5.5: 10 mM Mes
Excerpt: POMs of the globular Keggin and planar Anderson archetype and with varying charge status from -3 to -8 (Fig. 1) were selected. To offset the known [XW12O40]^n- (X = hetero-ion) hydrolysis propensity in aqueous solution, most pronounced at neutral pH, more highly charged mixed-metal derivatives (Fig. 1,lefthand side) were also included. The latter are obtained by hydrolytic removal of one W=O^4+ unit from the Keggin structure and the subsequent incorporation of an addenda metal to fill the cavity of the monolacunary intermediate. In detail, the following POM anions were studied (as acid or sodium, potassium, or tetraalkylammonium salts), see Fig. 1: [α-P^VW^VI12O40]^3- ([PW12]^3-), [α-Si^IVW^VI12O40]^4- ([SiW12]^4-), [α-Al^IIIW^VI12O40]^5- ([AlW12]^5-), [α-P^VV^VW^VI11O40]^4- ([PVW11]^4-), [α-Si^IVMo^VIW^VI11O40]^4- ([SiMoW11]^4-), [α- HAl^IIIGe^IVW^VI11O39(H2O)]^5- ([GeAlW11]^5-), [{α-P^VW^VI11O39Zr^IV(µ-OH)(H2O)}2]^8- ([(PZrW11)2]^8-), and [Al^III(OH)6Mo^VI6O18]^3- ([AlMo6]^3-). First, their long-term (24 h and longer) stability in aqueous solution (slightly acidic and neutral) was investigated by applying the active NMR nuclei in their composition (see).

[4] = Transport experiments in CF-loaded anionic vesicles; format: biochemical; conditions: DMPE/DPPG/CHOL (anionic), 13 µM phospholipids, 10 µM heptaArg
Procedure: Anionic vesicles in neutral media: Anionic vesicles were prepared analogously except for the lipid composition, DMPE/DPPG/CHOL (4.4/10.4/2.6 mg, 1/2/1 molar ratio) in a 1:1 mixture of CHCl3 and MeOH (1mL), the hydration (60 mins) and extrusion were performed at 55 °C, and the employed buffers were 100 mM CF, 10 mM Tris, pH 7.4 and 10 mM Tris, 140 mM NaCl, pH 7.4 for rehydration and elution, respectively.
Vesicles stock solutions (5-10 µL) were diluted with the corresponding buffer in a disposable plastic cuvette and gently stirred (total volume 2000 µL, final lipid concentration 13 µM). […] Fluorescence intensities were normalized to fractional emission as: I(t) = (It −I0)/(I∞ −I0) [formula]
Where I0 = It before POM addition and […] = I∞ after lysis. For Hill analysis, It before lysis was defined as transport activity, Y, and plotted against POM concentration, c, and fitted to the Hill equation (2), to afford the activity in absence of POM, Y0, the maximal activity, Ymax, the concentration needed to achieve 50 % of maximal activity, EC50, and the Hill coefficient, n. Y = Y0 + (Ymax −Y0)/(1 + (((EC50)/(c)))^n) [formula]
In the transport measurements, where different carriers (POMs) are tested with the same cargo, the activator efficiency (E) is determined by their capacity to transport the impermeable cargo to the intravesicular region and is characterized by Ymax, its maximal activity, and EC50, the effective activator concentration. An ideal carrier reaches high Ymax at low EC50. To count both factors, the activator efficiency is defined as: E = Ymax (pEC50)/(f) [formula] were pEC50 is the negative logarithm of the EC50, and fa scaling factor, which was set to 20.6 to calibrate the highest (previously known) activation efficiency, E, as 10.

[5] = Nutrient mixture F-12 Ham after incubation for 1 h at 37 °C

K4[α-P^VV^VW^VI11O40]·4H2O [[PVW11]^4-]
Protamine Ka/ 10^7 [1]: 25 ± 9 10^7 M-1
HeptaArg Ka/ 10^7 [2]: 5.7 ± 0.7 10^7 M-1
Hydrolysis/Stability pH 7.5 [3]: 20 % to [P^VW^VI11O39]^7- and 20 % hydrolyzed to [P^VW^VI11O39]^7
Hydrolysis/Stability pH 5.5 [3]: stable
POM anions with % for parent (active) anion based on signals integration ([3]; D2O): [P^VV^VW^VI11O40]^4-
% of hydrolysis product [P^VW^VI11O39]^7- based on signals integration ([3]; Mes pH 5.5 after 1 day): 1%
POM anions with % for parent (active) anion based on signals integration ([3]; Mes pH 5.5 after 1 day): 99%
% of hydrolysis product [P^VW^VI11O39]^7- based on signals integration ([3]; Mes pH 5.5 after 5 days): 1%
POM anions with % for parent (active) anion based on signals integration ([3]; Mes pH 5.5 after 5 days): 99%
% of hydrolysis product [P^VW^VI11O39]^7- based on signals integration ([3]; Mes pH 5.5 freshly prepared): 1%
POM anions with % for parent (active) anion based on signals integration ([3]; Mes pH 5.5 freshly prepared): 99%
POM anions with % for parent (active) anion based on signals integration [3, 5]: [P^VW^VI11O39]^7- (coordinated to different alkali and earth alkali metals leading to different shifts) and [P^VV^VW^VI11O40]^4- (16 %)
POM anions with % for parent (active) anion based on signals integration ([3]; Nutrient mixture F-12 Ham freshly prepared): [P^VW^VI11O39]^7- (coordinated to different alkali and earth alkali metals leading to different shifts) and [P^VV^VW^VI11O40]^4- (43 %)
POM anions with % for parent (active) anion based on signals integration ([3]; Tris-HCl pH 7.5 after 1 day): [P^VW^VI11O39]^7- and [P^VV^VW^VI11O40]^4- (71 %)
POM anions with % for parent (active) anion based on signals integration ([3]; Tris-HCl pH 7.5 after 5 days): [P^VW^VI11O39]^7- and [P^VV^VW^VI11O40]^4- (68 %)
POM anions with % for parent (active) anion based on signals integration ([3]; Tris-HCl pH 7.5 freshly prepared): [P^VW^VI11O39]^7- and [P^VV^VW^VI11O40]^4- (81 %)
hydrolysis on long time scales at neutral pH ([3]; neutral pH, after 24 h): ca. 20%
E (activation efficiency) [4]: 2.8
EC50 [4]: 50 µM
Ymax [4]: 45%

K4[α-Si^IVMo^VIW^VI11O40]·24H2O [[SiMoW11]^4-]
Protamine Ka/ 10^7 [1]: 1.7 ± 0.3 10^7 M-1
HeptaArg Ka/ 10^7 [2]: 0.6 10^7 M-1
Hydrolysis/Stability pH 7.5 [3]: stable
Hydrolysis/Stability pH 5.5 [3]: stable
POM anions with % for parent (active) anion based on signals integration ([3]; Mes pH 5.5 (time not given)): [Si^IVMo^VIW^VI11O40]^4-
POM anions with % for parent (active) anion based on signals integration [3, 5]: [Si^IVMo^VIW^VI11O40]^4-
POM anions with % for parent (active) anion based on signals integration ([3]; Tris-HCl pH 7.5 (time not given)): [Si^IVMo^VIW^VI11O40]^4-
E (activation efficiency) [4]: 3.6
EC50 [4]: 60 µM
Ymax [4]: 61%

From EP4483904A1, “POLYOXOMETALATES AS MEMBRANE CARRIERS” (Universität Wien, priority 2023, dated 2025)
